Data published in patent US4562211A, “Pharmaceutically active 2-substituted-1-(omega-aminoalkoxy)benzenes” (Mitsubishi Chemical Industries, Ltd., priority 1976, dated 1985).
Counter-ions that a name gives are not always drawn.

Key:
[1] = Acute toxicity in mice, LD50 (Litchfield-Wilcoxon); settings: mouse, in vivo, ip
Method: The compounds have been tested in mice for antidepressant, sedative, anticonvulsant and anticholinergic activity. The compounds were administered intraperitoneally and the activities of the compounds were compared with those of Amitriptyline.
LD50 was calculated by Litchfield-Wilcoxon method.

[2] = tested on: electroshock induced tonic extensor; experiment: Anticonvulsant activity: antagonism of electroshock induced tonic extensor; assay type: in vivo; settings: Mus musculus, po; mice; p.o.; dose preventing 50% of response; read-out: Anti-Convulsant Activity ED50
[3] = tested on: neurological deficit as measured by traction test; experiment: CNS depressant activity: muscle relaxant action, traction test; assay type: in vivo; settings: Mus musculus, po, mice
[4] = tested on: spontaneous motor activity; experiment: CNS depressant activity: spontaneous motor activity depression (ANIMEX apparatus); assay type: in vivo; settings: Mus musculus, po, mice
tremorine induced tremor = experiment: Central anticholinergic effect: antitremorine effect; assay type: in vivo; settings: Mus musculus, po, mice
[5] = tested on: reserpine (5 mg/kg i.p.) induced hypothermia; experiment: Antireserpine activity in mice (antagonism of reserpine induced hypothermia), relative to Amitriptyline; assay type: in vivo; settings: Amitriptyline=1
Method: The 2-substituted-1-(omega-aminoalkoxy)benzenes and the acid addition salts thereof may be purified by recrystallization employing a suitable solvent such as alcohol-ether.
The compounds were administered intraperitoneally and the activities of the compounds were compared with those of Amitriptyline.

| SMILES | LD50 [1] [mg/kg] | Antireserpine activity, Relative Potency [5] | also measured |
| --- | --- | --- | --- |
| CN(C)CCC=C1c2ccccc2CCc2ccccc21 [Amitriptyline, reference compound] | 300 | – | ED50 [2]: 19 mg/kg; ED50 [3]: 40 mg/kg; ED50 [4]: 28 mg/kg; ED50 (tremorine induced tremor): 11 mg/kg |
| CNCCCCOc1c(C)cccc1Cc1ccccc1 [No. 1, 2-(4-methylaminobutoxy)-3-methyldiphenylmethane hydrochloride] | 500 to 700 | 0.56 | – |
| Cc1cccc(Cc2ccccc2)c1OCCCCN(C)C [No. 2, 2-(4-dimethylaminobutoxy)-3-methyldiphenylmethane] | 500 to 700 | 0.66 | – |
| CNCCCCOc1ccccc1Cc1ccccc1O [No. 8, 2-(4-methylaminobutoxy)-2'-hydroxydiphenylmethane] | – | – | ED50 [2]: 190 mg/kg; ED50 [3]: 390 mg/kg; ED50 [4]: 175 mg/kg; ED50 (tremorine induced tremor): > 200 mg/kg |
| Cc1ccc(OCCCCN(C)C)c(Cc2ccccc2)c1 [compound 3] | 500 to 700 | 0.70 | – |
| CNCCCCOc1ccccc1Cc1ccc(C)cc1 [compound 4] | – | 0.44 | – |
| CNCCCCOc1ccccc1Cc1ccc(Cl)cc1 [compound 5] | – | 0.44 | – |
| COc1ccc(Cc2ccccc2OCCCCN(CCO)CCO)cc1 [compound 6] | – | 0.44 | – |
| CNCCCCOc1ccccc1Cc1ccccc1OC [compound 7] | 600 | 0.85 | – |
| CNCCCCOc1ccccc1Cc1ccccc1O [compound 8] | 600 to 700 | 1.00 | – |
| CN(C)CCCCOc1ccccc1Cc1ccccc1O [compound 9] | – | 0.77 | – |
| CCOc1ccccc1Oc1ccccc1OCCCCNC [compound 10] | – | 0.90 | – |
| CNCCCCOc1ccccc1Oc1ccccc1C [compound 11] | – | 0.65 | – |
| CNCCCOc1ccccc1Oc1ccccc1C [compound 12] | – | 1.12 | – |
| Cc1ccccc1Oc1ccccc1OCCCN(C)C [compound 13] | – | 0.95 | – |
| CCNCCCOc1ccccc1Oc1ccccc1C [compound 14] | – | 0.46 | – |
| CCN(CC)CCCOc1ccccc1Oc1ccccc1C [compound 15] | – | 0.44 | – |
| Cc1ccccc1Oc1ccccc1OCCCN1CCCC1 [compound 16] | – | 0.42 | – |
